Data published in the supplement of paper PMC10307832.

Key:
Assay in all cases: relative viability (nuclei count vs DMSO), 5 days (fraction); higher = more cells survive
NCI-H1755 = tested on: NCI-H1755
Method in brief: (§1)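 Relative viability was taken as the ratio of nuclei in treated wells to nuclei in vehicle wells. Lung cancer cell lines in 1536-well plates received compounds by pin tool one day after seeding, either one drug alone or a fixed anchor-drug dose plus five library-drug doses (not always all listed) in √10 steps. Nuclei were counted on 4× images after 5 days of treatment, and values are medians of duplicate plates.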

NCI-H522 = tested on: NCI-H522
Method in brief: as §1

NCI-H2170 = tested on: NCI-H2170
Method in brief: as §1

PC-14 = tested on: PC-14
Method in brief: as §1

HOP-62 = tested on: HOP-62
Method in brief: as §1

COR-L 105 = tested on: COR-L 105
Method in brief: as §1

NCI-H1734 = tested on: NCI-H1734
Method in brief: as §1

NCI-H1395 = tested on: NCI-H1395
Method in brief: as §1

SK-MES-1 = tested on: SK-MES-1
Method in brief: as §1

NCI-H2342 = tested on: NCI-H2342
Method in brief: as §1

UMC-11 = tested on: UMC-11
Method in brief: as §1

NCI-H647 = tested on: NCI-H647
Method in brief: as §1

NCI-H2347 = tested on: NCI-H2347
Method in brief: as §1

NCI-H1793 = tested on: NCI-H1793
Method in brief: as §1

NCI-H1355 = tested on: NCI-H1355
Method in brief: as §1

NCI-H2228 = tested on: NCI-H2228
Method in brief: as §1

HARA = tested on: HARA
Method in brief: as §1

NCI-H2009 = tested on: NCI-H2009
Method in brief: as §1

NCI-H358 = tested on: NCI-H358
Method in brief: as §1

NCI-H838 = tested on: NCI-H838
Method in brief: as §1

COR-L23 = tested on: COR-L23
Method in brief: as §1

NCI-H322M = tested on: NCI-H322M
Method in brief: as §1

EKVX = tested on: EKVX
Method in brief: as §1

NCI-H1993 = tested on: NCI-H1993
Method in brief: as §1

COc1cc(N2CCC(C(N)=O)CC2)ccc1Nc1nc(N)c(Cl)c(Nc2ccccc2S(=O)(=O)C(C)C)n1 [HG-5-88-01] + Cc1cc(Nc2cc(N3CCN(C)CC3)nc(Sc3ccc(NC(=O)C4CC4)cc3)n2)n[nH]1 [Tozasertib] (partner 0.1 µM)
relative viability (NCI-H1755; first compound 0.04 µM): 0.602
relative viability (NCI-H1755; first compound 0.1265 µM): 0.589
relative viability (NCI-H1755; first compound 0.4 µM): 0.587
relative viability (NCI-H1755; first compound 1.265 µM): 0.512
relative viability (NCI-H1755; first compound 4 µM): 0.495
relative viability (NCI-H522; first compound 0.04 µM): 0.567
relative viability (NCI-H522; first compound 0.1265 µM): 0.454
relative viability (NCI-H522; first compound 0.4 µM): 0.584
relative viability (NCI-H522; first compound 1.265 µM): 0.57
relative viability (NCI-H522; first compound 4 µM): 0.454
relative viability (NCI-H2170; first compound 0.04 µM): 0.768
relative viability (NCI-H2170; first compound 0.1265 µM): 0.67
relative viability (NCI-H2170; first compound 0.4 µM): 0.678
relative viability (NCI-H2170; first compound 1.265 µM): 0.464
relative viability (NCI-H2170; first compound 4 µM): 0.635
relative viability (PC-14; first compound 0.04 µM): 0.617
relative viability (PC-14; first compound 0.1265 µM): 0.645
relative viability (PC-14; first compound 0.4 µM): 0.602
relative viability (PC-14; first compound 1.265 µM): 0.228
relative viability (PC-14; first compound 4 µM): 0.257
relative viability (HOP-62; first compound 0.04 µM): 0.357
relative viability (HOP-62; first compound 0.1265 µM): 0.359
relative viability (HOP-62; first compound 0.4 µM): 0.307
relative viability (HOP-62; first compound 1.265 µM): 0.327
relative viability (HOP-62; first compound 4 µM): 0.334
relative viability (COR-L 105; first compound 0.04 µM): 0.377
relative viability (COR-L 105; first compound 0.1265 µM): 0.379
relative viability (COR-L 105; first compound 0.4 µM): 0.317
relative viability (COR-L 105; first compound 1.265 µM): 0.312
relative viability (COR-L 105; first compound 4 µM): 0.42
relative viability (NCI-H1734; first compound 0.04 µM): 0.267
relative viability (NCI-H1734; first compound 0.1265 µM): 0.235
relative viability (NCI-H1734; first compound 0.4 µM): 0.225
relative viability (NCI-H1734; first compound 1.265 µM): 0.243
relative viability (NCI-H1734; first compound 4 µM): 0.27
relative viability (NCI-H1395; first compound 0.04 µM): 0.79
relative viability (NCI-H1395; first compound 0.1265 µM): 0.692
relative viability (NCI-H1395; first compound 0.4 µM): 0.859
relative viability (NCI-H1395; first compound 1.265 µM): 0.716
relative viability (NCI-H1395; first compound 4 µM): 0.65
relative viability (SK-MES-1; first compound 0.04 µM): 0.843
relative viability (SK-MES-1; first compound 0.1265 µM): 0.909
relative viability (SK-MES-1; first compound 0.4 µM): 0.833
relative viability (SK-MES-1; first compound 1.265 µM): 0.579
relative viability (SK-MES-1; first compound 4 µM): 0.158
relative viability (NCI-H2342; first compound 0.04 µM): 0.563
relative viability (NCI-H2342; first compound 0.1265 µM): 0.547
relative viability (NCI-H2342; first compound 0.4 µM): 0.574
relative viability (NCI-H2342; first compound 1.265 µM): 0.273
relative viability (NCI-H2342; first compound 4 µM): 0.443
relative viability (UMC-11; first compound 0.04 µM): 0.213
relative viability (UMC-11; first compound 0.1265 µM): 0.205
relative viability (UMC-11; first compound 1.265 µM): 0.192
relative viability (UMC-11; first compound 4 µM): 0.191
relative viability (NCI-H647; first compound 0.04 µM): 0.236
relative viability (NCI-H647; first compound 0.1265 µM): 0.403
relative viability (NCI-H647; first compound 0.4 µM): 0.309
relative viability (NCI-H647; first compound 1.265 µM): 0.203
relative viability (NCI-H647; first compound 4 µM): 0.216
relative viability (NCI-H2347; first compound 0.04 µM): 0.638
relative viability (NCI-H2347; first compound 0.1265 µM): 0.563
relative viability (NCI-H2347; first compound 0.4 µM): 0.743
relative viability (NCI-H2347; first compound 1.265 µM): 0.392
relative viability (NCI-H2347; first compound 4 µM): 0.398
relative viability (NCI-H1793; first compound 0.1265 µM): 0.313
relative viability (NCI-H1793; first compound 0.4 µM): 0.293
relative viability (NCI-H1793; first compound 4 µM): 0.216
relative viability (NCI-H1355; first compound 0.04 µM): 0.601
relative viability (NCI-H1355; first compound 0.1265 µM): 0.545
relative viability (NCI-H1355; first compound 0.4 µM): 0.493
relative viability (NCI-H1355; first compound 1.265 µM): 0.454
relative viability (NCI-H1355; first compound 4 µM): 0.342
relative viability (NCI-H2228; first compound 0.04 µM): 0.259
relative viability (NCI-H2228; first compound 0.1265 µM): 0.13
relative viability (NCI-H2228; first compound 0.4 µM): 0.159
relative viability (NCI-H2228; first compound 1.265 µM): 0.111
relative viability (NCI-H2228; first compound 4 µM): 0.133
relative viability (HARA; first compound 0.04 µM): 0.108
relative viability (HARA; first compound 0.1265 µM): 0.132
relative viability (HARA; first compound 0.4 µM): 0.0858
relative viability (HARA; first compound 1.265 µM): 0.099
relative viability (HARA; first compound 4 µM): 0.0727
relative viability (NCI-H2009; first compound 0.04 µM): 0.734
relative viability (NCI-H2009; first compound 0.1265 µM): 0.753
relative viability (NCI-H2009; first compound 0.4 µM): 0.611
relative viability (NCI-H2009; first compound 1.265 µM): 0.578
relative viability (NCI-H2009; first compound 4 µM): 0.451
relative viability (NCI-H358; first compound 0.04 µM): 0.107
relative viability (NCI-H358; first compound 0.1265 µM): 0.0991
relative viability (NCI-H358; first compound 0.4 µM): 0.0776
relative viability (NCI-H358; first compound 1.265 µM): 0.0713
relative viability (NCI-H358; first compound 4 µM): 0.0702
relative viability (NCI-H838; first compound 0.04 µM): 0.234
relative viability (NCI-H838; first compound 0.1265 µM): 0.256
relative viability (NCI-H838; first compound 0.4 µM): 0.185
relative viability (NCI-H838; first compound 1.265 µM): 0.209
relative viability (NCI-H838; first compound 4 µM): 0.21
relative viability (COR-L23; first compound 0.04 µM): 0.202
relative viability (COR-L23; first compound 0.1265 µM): 0.196
relative viability (COR-L23; first compound 0.4 µM): 0.168
relative viability (COR-L23; first compound 1.265 µM): 0.165
relative viability (COR-L23; first compound 4 µM): 0.109
relative viability (NCI-H322M; first compound 0.04 µM): 0.456
relative viability (NCI-H322M; first compound 0.1265 µM): 0.443
relative viability (NCI-H322M; first compound 0.4 µM): 0.387
relative viability (NCI-H322M; first compound 4 µM): 0.38
relative viability (EKVX; first compound 0.04 µM): 0.356
relative viability (EKVX; first compound 0.1265 µM): 0.396
relative viability (EKVX; first compound 0.4 µM): 0.374
relative viability (EKVX; first compound 4 µM): 0.286
relative viability (NCI-H1993; first compound 0.04 µM): 0.607
relative viability (NCI-H1993; first compound 0.1265 µM): 0.635
relative viability (NCI-H1993; first compound 0.4 µM): 0.595
relative viability (NCI-H1993; first compound 1.265 µM): 0.556
relative viability (NCI-H1993; first compound 4 µM): 0.535
